Source: PubChem BioAssay AID256 (DTP/NCI, 2004)
Where “and” joins values, the source holds several entries; their conditions need not be identical. Equal entries are not always repeated. Toxic doses and inconclusive results are not listed. How the source made its calls: active means survival T/C of 150% or more; inactive means T/C below 125% in these data.

Tested on: CD2F1 mice, L1210 leukemia ip, survival T/C
Experiment: NCI In Vivo Anticancer Drug Screen. Data for tumor model L1210 Leukemia (intraperitoneal) in CD2F1 (CDF1) mice
Conditions: endpoint: mean survival time, higher = longer survival
Procedure, shortened: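 Mice carrying a transplanted tumor received test compound or vehicle alone. The value is the measurement in the treated group divided by that in the vehicle-treated control group.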

[1] = dose: 50.0 mg/kg/injection, schedule: Q01DX009 (ip), vehicle: saline with Tween-80
[2] = dose: 100.0 mg/kg/injection, schedule: Q01DX009 (ip), vehicle: saline with Tween-80
[3] = dose: 200.0 mg/kg/injection, schedule: Q01DX009 (ip), vehicle: saline with Tween-80
[4] = dose: 100.0 mg/kg/injection, schedule: Q04DX003 (ip), vehicle: saline with Tween-80
[5] = dose: 200.0 mg/kg/injection, schedule: Q04DX003 (ip), vehicle: saline with Tween-80
[6] = dose: 400.0 mg/kg/injection, schedule: Q04DX003 (ip), vehicle: saline with Tween-80

Measured: T/C

Nc1nc(N)c2nc(-c3ccccc3Cl)c(-c3ccccc3Cl)nc2n1
inactive: dose: 25.0 mg/kg/injection, schedule: Q04DX002 (ip), vehicle: Klucel (hydroxypropylcellulose) (HPC) 91 % of control | dose: 50.0 mg/kg/injection, schedule: Q04DX002 (ip), vehicle: Klucel (hydroxypropylcellulose) (HPC) 98 % of control | dose: 100.0 mg/kg/injection, schedule: Q04DX002 (ip), vehicle: Klucel (hydroxypropylcellulose) (HPC) 95 % of control

Nc1nc(=Nc2ccccc2)n(C2OCC(O)C(O)C2O)c2ccccc12 (stereo not drawn)
inactive: dose: 12.5 mg/kg/injection, schedule: Q01DX005 (ip), vehicle: distilled water + Tween-80 94 % of control | dose: 25.0 mg/kg/injection, schedule: Q01DX005 (ip), vehicle: distilled water + Tween-80 94 % of control | dose: 50.0 mg/kg/injection, schedule: Q01DX005 (ip), vehicle: distilled water + Tween-80 93 % of control | dose: 100.0 mg/kg/injection, schedule: Q01DX005 (ip), vehicle: distilled water + Tween-80 90 % of control | dose: 200.0 mg/kg/injection, schedule: Q01DX005 (ip), vehicle: distilled water + Tween-80 86 % of control

O=C(O)CC1CCC1CC(=O)O (stereo not drawn)
inactive: [1] 90 % of control | [2] 96 % of control and 100 % of control | [3] 96 % of control and 103 % of control

O=C(COc1cccc(Cl)c1)Nc1ccc(S(=O)(=O)F)cc1
inactive: dose: 100.0 mg/kg/injection, schedule: Q01DX001 (ip), vehicle: saline with Tween-80 97 % of control | dose: 200.0 mg/kg/injection, schedule: Q01DX001 (ip), vehicle: saline with Tween-80 95 % of control | dose: 400.0 mg/kg/injection, schedule: Q01DX001 (ip), vehicle: saline with Tween-80 91 % of control

O=C1C=CC(=NCl)C=C1
inactive: dose: 2.5 mg/kg/injection, schedule: Q04DX003 (ip), vehicle: saline with Tween-80 100 % of control | dose: 5.0 mg/kg/injection, schedule: Q04DX003 (ip), vehicle: saline with Tween-80 110 % of control

Cc1ccc(S(=O)(=O)OCC2OCOC(COS(=O)(=O)c3ccc(C)cc3)C(O)C2O)cc1 (stereo not drawn)
inactive: [2] 101 % of control | [3] 98 % of control | dose: 400.0 mg/kg/injection, schedule: Q01DX009 (ip), vehicle: saline with Tween-80 96 % of control

CCOP(=S)(NCCOC)OCC
inactive: [4] 101 % of control | [5] 101 % of control | [6] 100 % of control

c1ccc2c(c1)CN(C1CCCCC1)CO2
inactive: [1] 98 % of control | [2] 97 % of control | [3] 97 % of control

OCc1ccc2[n+](c1)CCc1c-2[nH]c2ccccc12
inactive: dose: 12.5 mg/kg/injection, schedule: Q01DX001 (ip), vehicle: saline with Tween-80 96 % of control | dose: 12.5 mg/kg/injection, schedule: Q01DX009 (ip), vehicle: saline with Tween-80 98 % of control | dose: 25.0 mg/kg/injection, schedule: Q01DX001 (ip), vehicle: saline with Tween-80 101 % of control | dose: 25.0 mg/kg/injection, schedule: Q01DX009 (ip), vehicle: saline with Tween-80 94 % of control | dose: 50.0 mg/kg/injection, schedule: Q01DX001 (ip), vehicle: saline with Tween-80 101 % of control | [1] 100 % of control

COc1ccccc1NC(=O)Oc1ccc2ccccc2c1
inactive: dose: 100.0 mg/kg/injection, schedule: Q04DX002 (ip), vehicle: saline with Tween-80 103 % of control | dose: 200.0 mg/kg/injection, schedule: Q04DX002 (ip), vehicle: saline with Tween-80 91 % of control

CC(C)C(O)(C(=O)O)C(C)O (stereo not drawn)
inactive: dose: 12.5 mg/kg/injection, schedule: Q01DX009 (ip), vehicle: water 96 % of control | dose: 25.0 mg/kg/injection, schedule: Q01DX009 (ip), vehicle: water 94 % of control | dose: 50.0 mg/kg/injection, schedule: Q01DX009 (ip), vehicle: water 88 % of control | dose: 100.0 mg/kg/injection, schedule: Q01DX009 (ip), vehicle: water 89 % of control

CCN(CC)CCNCCCNCCN(CC)CC
inactive: dose: 100.0 mg/kg/injection, schedule: Q01DX009 (ip), vehicle: saline 92 % of control | [4] 98 % of control | dose: 200.0 mg/kg/injection, schedule: Q01DX009 (ip), vehicle: saline 92 % of control | [5] 95 % of control | dose: 400.0 mg/kg/injection, schedule: Q01DX009 (ip), vehicle: saline 87 % of control | [6] 95 % of control
